{"source": "paper PMC2217457", "about": "(The Journal of General Physiology, 2004)", "key": {"mouse AChR αS126V": {"test_system": "mouse AChR αS126V", "test": "Single-channel kinetics, αS126V AChR", "assay_type": "cell-based", "conditions": "clusters at different concentrations of ACh"}, "mouse AChR αP120G": {"test_system": "mouse AChR αP120G", "test": "Single-channel kinetics, αP120G AChR", "assay_type": "cell-based", "conditions": "clusters at different concentrations of ACh"}, "mouse AChR αS126A": {"test_system": "mouse AChR αS126A", "test": "Single-channel kinetics, αS126A AChR", "assay_type": "cell-based", "conditions": "clusters at different concentrations of ACh"}, "mouse AChR αV46A": {"test_system": "mouse AChR αV46A", "test": "Single-channel kinetics, αV46A AChR", "assay_type": "cell-based"}, "mouse AChR αV46E": {"test_system": "mouse AChR αV46E", "test": "Single-channel kinetics, αV46E AChR", "assay_type": "cell-based"}, "mouse AChR αR20L": {"test_system": "mouse AChR αR20L", "conditions": "0.4 mM choline"}, "mouse AChR αR55A": {"test_system": "mouse AChR αR55A", "conditions": "20 mM choline"}, "mouse AChR αR55W": {"test_system": "mouse AChR αR55W", "conditions": "20 mM choline"}, "[1]": {"target": "T1, mouse muscle-type AChR wild-type (Mus musculus, UniProt P02716+P04756+P20782)", "T1 sequence (P04756 21-457)": "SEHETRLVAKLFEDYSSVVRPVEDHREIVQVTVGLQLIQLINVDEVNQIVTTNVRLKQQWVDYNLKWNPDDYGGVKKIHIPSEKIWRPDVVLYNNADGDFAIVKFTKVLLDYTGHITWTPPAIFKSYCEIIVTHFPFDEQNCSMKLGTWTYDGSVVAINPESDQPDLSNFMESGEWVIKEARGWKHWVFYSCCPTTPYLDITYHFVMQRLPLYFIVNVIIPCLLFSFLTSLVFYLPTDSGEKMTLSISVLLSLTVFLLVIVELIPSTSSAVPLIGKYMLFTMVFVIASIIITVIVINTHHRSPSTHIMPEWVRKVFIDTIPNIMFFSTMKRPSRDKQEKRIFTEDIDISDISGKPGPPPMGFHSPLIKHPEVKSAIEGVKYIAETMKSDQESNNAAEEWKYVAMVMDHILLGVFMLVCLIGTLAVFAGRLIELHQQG", "T1 sequence (P09690 24-501 partner)": "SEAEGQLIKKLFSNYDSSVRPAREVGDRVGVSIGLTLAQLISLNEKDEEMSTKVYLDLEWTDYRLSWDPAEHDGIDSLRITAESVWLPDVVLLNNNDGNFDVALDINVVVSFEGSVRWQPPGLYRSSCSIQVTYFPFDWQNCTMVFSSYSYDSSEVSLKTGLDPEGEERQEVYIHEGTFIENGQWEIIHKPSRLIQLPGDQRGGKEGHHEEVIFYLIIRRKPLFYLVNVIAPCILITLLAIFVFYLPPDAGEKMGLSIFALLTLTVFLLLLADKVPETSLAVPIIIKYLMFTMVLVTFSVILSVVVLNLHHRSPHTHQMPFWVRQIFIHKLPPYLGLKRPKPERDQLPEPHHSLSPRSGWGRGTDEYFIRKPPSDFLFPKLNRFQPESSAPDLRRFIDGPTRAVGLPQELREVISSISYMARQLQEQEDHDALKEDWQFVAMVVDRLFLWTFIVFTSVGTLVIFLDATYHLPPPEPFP", "T1 sequence (P02716 25-520)": "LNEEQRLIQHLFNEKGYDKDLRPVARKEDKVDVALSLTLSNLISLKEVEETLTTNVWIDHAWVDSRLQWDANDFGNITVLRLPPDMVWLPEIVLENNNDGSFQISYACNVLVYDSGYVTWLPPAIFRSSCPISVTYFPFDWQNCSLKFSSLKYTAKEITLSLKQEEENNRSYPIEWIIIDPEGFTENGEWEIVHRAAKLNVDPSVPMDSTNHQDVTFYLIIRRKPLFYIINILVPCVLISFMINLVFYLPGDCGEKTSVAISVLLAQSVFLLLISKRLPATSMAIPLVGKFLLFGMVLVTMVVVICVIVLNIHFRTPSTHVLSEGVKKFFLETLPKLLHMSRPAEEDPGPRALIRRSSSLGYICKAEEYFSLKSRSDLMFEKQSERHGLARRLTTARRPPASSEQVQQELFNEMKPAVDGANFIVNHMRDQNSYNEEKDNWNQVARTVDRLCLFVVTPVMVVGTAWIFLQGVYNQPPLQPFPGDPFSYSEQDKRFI", "T1 sequence (P20782 21-493)": "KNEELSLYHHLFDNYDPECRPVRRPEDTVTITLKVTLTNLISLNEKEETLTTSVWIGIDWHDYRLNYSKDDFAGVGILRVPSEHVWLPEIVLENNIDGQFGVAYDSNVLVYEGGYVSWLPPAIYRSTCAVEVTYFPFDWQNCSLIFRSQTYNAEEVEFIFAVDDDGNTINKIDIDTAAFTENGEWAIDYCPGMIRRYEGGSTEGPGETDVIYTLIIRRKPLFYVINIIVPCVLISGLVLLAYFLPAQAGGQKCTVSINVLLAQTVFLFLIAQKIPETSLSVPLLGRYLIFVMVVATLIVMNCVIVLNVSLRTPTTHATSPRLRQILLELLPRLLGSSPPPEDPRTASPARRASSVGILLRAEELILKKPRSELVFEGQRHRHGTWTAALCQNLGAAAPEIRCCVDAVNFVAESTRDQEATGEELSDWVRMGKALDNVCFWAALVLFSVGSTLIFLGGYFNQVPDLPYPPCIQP", "conditions": "wt AChR"}, "[2]": {"target": "T1, mouse muscle-type AChR wild-type", "conditions": "wt AChRs; ref Zhou et al., 1999; Grosman and Auerbach, 2000a; cited from earlier work"}}, "data": [{"compound": "CC(=O)OCC[N+](C)(C)C", "note": "[ACh, acetylcholine]", "values": [{"measurement": "α2 ACh (diliganded channel-closing rate constant)", "setting": "mouse AChR αS126V", "result": "1,770"}, {"measurement": "β2 ACh (diliganded channel-opening rate constant)", "setting": "mouse AChR αS126V", "result": "40,253"}, {"measurement": "α2 ACh (diliganded channel-closing rate constant)", "setting": "mouse AChR αP120G", "result": "2,006"}, {"measurement": "β2 ACh (diliganded channel-opening rate constant)", "setting": "mouse AChR αP120G", "result": "49,531"}, {"measurement": "α2 ACh (diliganded channel-closing rate constant)", "setting": "mouse AChR αS126A", "result": "2,598"}, {"measurement": "β2 ACh (diliganded channel-opening rate constant)", "setting": "mouse AChR αS126A", "result": "48,918"}, {"measurement": "α2 ACh (diliganded channel-closing rate constant)", "setting": "mouse AChR αV46A; low ACh", "result": "4,135 s^−1"}, {"measurement": "β2 ACh (diliganded channel-opening rate constant)", "setting": "mouse AChR αV46A; saturating ACh", "result": "1,340 s^−1"}, {"measurement": "α2 ACh (diliganded channel-closing rate constant)", "setting": "mouse AChR αV46E; low ACh", "result": "6,613 s^−1"}, {"measurement": "β2 ACh (diliganded channel-opening rate constant)", "setting": "mouse AChR αV46E; saturating ACh", "result": 795, "unit": "s⁻¹"}]}, {"compound": "C[N+](C)(C)CCO", "note": "[Choline, choline]", "values": [{"measurement": "α2 Choline (diliganded channel-closing rate constant)", "setting": "mouse AChR αN141V; 0.4 mM choline", "result": "1,389 s^−1"}, {"measurement": "β2 Choline (diliganded channel-opening rate constant)", "setting": "mouse AChR αN141V; 20 mM choline", "result": 260, "unit": "s⁻¹"}, {"measurement": "α2 Choline (diliganded channel-closing rate constant)", "setting": "mouse AChR αM144I; 0.4 mM choline", "result": "2,823"}, {"measurement": "β2 Choline (diliganded channel-opening rate constant)", "setting": "mouse AChR αM144I; 20 mM choline", "result": 93}, {"measurement": "α2 Choline (diliganded channel-closing rate constant)", "setting": "mouse AChR αR20L", "result": "2,119"}, {"measurement": "α2 Choline (diliganded channel-closing rate constant)", "setting": "mouse AChR αM144L; 0.4 mM choline", "result": "2,911"}, {"measurement": "β2 Choline (diliganded channel-opening rate constant)", "setting": "mouse AChR αM144L; 20 mM choline", "result": 917}, {"measurement": "α2 Choline (diliganded channel-closing rate constant)", "setting": "mouse AChR αV29L; 0.4 mM choline", "result": "2,644"}, {"measurement": "β2 Choline (diliganded channel-opening rate constant)", "setting": "mouse AChR αV29L; 20 mM choline", "result": 200}, {"measurement": "β2 Choline (diliganded channel-opening rate constant)", "setting": "mouse AChR αR55A", "result": 164}, {"measurement": "β2 Choline (diliganded channel-opening rate constant)", "setting": "mouse AChR αR55W", "result": 98.2}, {"measurement": "α2 Choline (diliganded channel-closing rate constant)", "setting": "mouse AChR αM144T; 0.4 mM choline", "result": "1,180"}, {"measurement": "β2 Choline (diliganded channel-opening rate constant)", "setting": "mouse AChR αM144T; 20 mM choline", "result": 54}, {"measurement": "α2 Choline (diliganded channel-closing rate constant)", "setting": "mouse AChR αD138E; 0.4 mM choline", "result": "1,456 s^−1"}, {"measurement": "β2 Choline (diliganded channel-opening rate constant)", "setting": "mouse AChR αD138E; 20 mM choline", "result": 239, "unit": "s⁻¹"}, {"measurement": "α2 Choline (diliganded channel-closing rate constant)", "setting": "mouse AChR αL110V; 0.4 mM choline", "result": "1,874"}, {"measurement": "β2 Choline (diliganded channel-opening rate constant)", "setting": "mouse AChR αL110V; 20 mM choline", "result": 70}, {"measurement": "α2 Choline (diliganded channel-closing rate constant)", "setting": "mouse AChR αF137M; 0.4 mM choline", "result": "1,017 s^−1"}, {"measurement": "β2 Choline (diliganded channel-opening rate constant)", "setting": "mouse AChR αF137M; 20 mM choline", "result": 225, "unit": "s⁻¹"}, {"measurement": "α2 Choline (diliganded channel-closing rate constant)", "setting": "mouse AChR αL65V; 0.4 mM choline", "result": "2,166"}, {"measurement": "β2 Choline (diliganded channel-opening rate constant)", "setting": "mouse AChR αL65V; 20 mM choline", "result": 124}, {"measurement": "α2 Choline (diliganded channel-closing rate constant)", "setting": "mouse AChR αI116A; 0.4 mM choline", "result": "2,238"}, {"measurement": "β2 Choline (diliganded channel-opening rate constant)", "setting": "mouse AChR αI116A; 20 mM choline", "result": 110}, {"measurement": "α2 Choline (diliganded channel-closing rate constant)", "setting": "mouse AChR αV54L; 0.4 mM choline", "result": "1,340"}, {"measurement": "β2 Choline (diliganded channel-opening rate constant)", "setting": "mouse AChR αV54L; 20 mM choline", "result": 124}, {"measurement": "α2 Choline (diliganded channel-closing rate constant)", "setting": "mouse AChR αL146M; 0.4 mM choline", "result": "2,435"}, {"measurement": "β2 Choline (diliganded channel-opening rate constant)", "setting": "mouse AChR αL146M; 20 mM choline", "result": 118}, {"measurement": "α2 Choline (diliganded channel-closing rate constant)", "setting": "mouse AChR αL56A; 0.4 mM choline", "result": "2,707"}, {"measurement": "β2 Choline (diliganded channel-opening rate constant)", "setting": "mouse AChR αL56A; 20 mM choline", "result": 217}, {"measurement": "α2 Choline (diliganded channel-closing rate constant)", "setting": "mouse AChR αV46I; 0.4 mM choline", "result": "1,982 s^−1"}, {"measurement": "β2 Choline (diliganded channel-opening rate constant)", "setting": "mouse AChR αV46I; 20 mM choline", "result": 249, "unit": "s⁻¹"}, {"measurement": "α2 Choline (diliganded channel-closing rate constant)", "setting": "mouse AChR αL146F; 0.4 mM choline", "result": "2,234"}, {"measurement": "β2 Choline (diliganded channel-opening rate constant)", "setting": "mouse AChR αL146F; 20 mM choline", "result": 97}, {"measurement": "α2 Choline (diliganded channel-closing rate constant)", "setting": "[1]; 0.4 mM choline", "result": "2,100 s^−1"}, {"measurement": "β2 Choline (diliganded channel-opening rate constant)", "setting": "[1]; 20 mM choline", "result": 100, "unit": "s⁻¹"}, {"measurement": "α2 Choline (diliganded channel-closing rate constant)", "setting": "mouse AChR αS143T; 0.4 mM choline", "result": "2,200"}, {"measurement": "β2 Choline (diliganded channel-opening rate constant)", "setting": "mouse AChR αS143T; 20 mM choline", "result": 118}, {"measurement": "α2 Choline (diliganded channel-closing rate constant)", "setting": "mouse AChR αL35A; 0.4 mM choline", "result": "2,423"}, {"measurement": "β2 Choline (diliganded channel-opening rate constant)", "setting": "mouse AChR αL35A; 20 mM choline", "result": 182}, {"measurement": "α2 Choline (diliganded channel-closing rate constant)", "setting": "mouse AChR αQ48A; 0.4 mM choline", "result": "10,271 s^−1"}, {"measurement": "β2 Choline (diliganded channel-opening rate constant)", "setting": "mouse AChR αQ48A; 20 mM choline", "result": "2,836 s^−1"}, {"measurement": "α2 Choline (diliganded channel-closing rate constant)", "setting": "mouse AChR αS143A; 0.4 mM choline", "result": "3,054"}, {"measurement": "β2 Choline (diliganded channel-opening rate constant)", "setting": "mouse AChR αS143A; 20 mM choline", "result": 79}, {"measurement": "α2 Choline (diliganded channel-closing rate constant)", "setting": "mouse AChR αL40A; 0.4 mM choline", "result": "1,629"}, {"measurement": "β2 Choline (diliganded channel-opening rate constant)", "setting": "mouse AChR αL40A; 20 mM choline", "result": 312}, {"measurement": "α2 Choline (diliganded channel-closing rate constant)", "setting": "mouse AChR αM144A; 0.4 mM choline", "result": "2,514"}, {"measurement": "β2 Choline (diliganded channel-opening rate constant)", "setting": "mouse AChR αM144A; 20 mM choline", "result": 64}, {"measurement": "α2 Choline (diliganded channel-closing rate constant)", "setting": "mouse AChR αA122L; 0.4 mM choline", "result": "2,142"}, {"measurement": "β2 Choline (diliganded channel-opening rate constant)", "setting": "mouse AChR αA122L; 20 mM choline", "result": 358}, {"measurement": "α2 Choline (diliganded channel-closing rate constant)", "setting": "mouse AChR αN47A; 0.4 mM choline", "result": "1,450 s^−1"}, {"measurement": "β2 Choline (diliganded channel-opening rate constant)", "setting": "mouse AChR αN47A; 20 mM choline", "result": 933, "unit": "s⁻¹"}, {"measurement": "diliganded gating equilibrium constant, times smaller than ACh", "setting": "[2]", "result": 500, "unit": "times"}, {"measurement": "α2 Choline (diliganded channel-closing rate constant)", "setting": "mouse AChR αN47K; 0.4 mM choline", "result": "2,371 s^−1"}, {"measurement": "β2 Choline (diliganded channel-opening rate constant)", "setting": "mouse AChR αN47K; 20 mM choline", "result": 607, "unit": "s⁻¹"}]}]}
